# Test results: publication PMC5218480 (PLoS ONE, 2017)
# System: MV-4-11 cells
# Assay: Gene expression microarray analysis (Affymetrix PrimeView) and GSEA
# Assay type: cell-based, human
# Design: RFU PODN (11730768_x_at) / Fold change /veh PODN (11730768_x_at) / RFU LINC00158 (11744669_a_at) / Fold change /veh LINC00158 (11744669_a_at) / RFU DUSP10 (11751237_a_at) / Fold change /veh DUSP10 (11751237_a_at) / RFU ID3 (11757404_x_at) / Fold change /veh ID3 (11757404_x_at) / RFU PLEKHG5 (11737974_s_at) / Fold change /veh PLEKHG5 (11737974_s_at) / RFU LRRC4B (11730491_at) / Fold change /veh LRRC4B (11730491_at) / RFU GIMAP4 (11747438_a_at) / Fold change /veh GIMAP4 (11747438_a_at) / RFU KRT8 (11758183_x_at) / Fold change /veh KRT8 (11758183_x_at) / RFU CNN1 (11734310_a_at) / Fold change /veh CNN1 (11734310_a_at) / RFU VPS37D (11726825_at) / Fold change /veh VPS37D (11726825_at) / RFU C10orf10 (11716522_x_at) / Fold change /veh C10orf10 (11716522_x_at) / RFU KIR2DL2 /// KIR2DL4 /// KIR2DL5A /// KIR2DL5B /// KIR2DS1 /// KIR2DS2 /// KIR2DS3 /// KIR2DS4 /// KIR3DL3 /// KIR3DL3 /// KIR3DS1 (11738374_at) / Fold change /veh KIR2DL2 /// KIR2DL4 /// KIR2DL5A /// KIR2DL5B /// KIR2DS1 /// KIR2DS2 /// KIR2DS3 /// KIR2DS4 /// KIR3DL3 /// KIR3DL3 /// KIR3DS1 (11738374_at) / RFU C1QL1 (11718748_at) / Fold change /veh C1QL1 (11718748_at) / RFU TMPRSS4 (11747572_a_at) / Fold change /veh TMPRSS4 (11747572_a_at) / RFU HAMP (11756126_x_at) / Fold change /veh HAMP (11756126_x_at) / RFU RNFT2 (11725882_a_at) / Fold change /veh RNFT2 (11725882_a_at) / RFU NR4A2 (11747474_a_at) / Fold change /veh NR4A2 (11747474_a_at) / RFU ABCC12 (11746883_a_at) / Fold change /veh ABCC12 (11746883_a_at) / RFU TMEM136 (11760407_x_at) / Fold change /veh TMEM136 (11760407_x_at) / RFU CLDN22 /// WWC2 (11732394_at) / Fold change /veh CLDN22 /// WWC2 (11732394_at) / RFU HLA-DPB1 (11760878_x_at) / Fold change /veh HLA-DPB1 (11760878_x_at) / RFU SPINT1 (11716480_a_at) / Fold change /veh SPINT1 (11716480_a_at) / RFU GAP43 (11754022_s_at) / Fold change /veh GAP43 (11754022_s_at) / RFU A4GNT (11735810_at) / Fold change /veh A4GNT (11735810_at) / RFU PRB3 (11715151_x_at) / Fold change /veh PRB3 (11715151_x_at) / RFU TUBB4B (11761932_at) / Fold change /veh TUBB4B (11761932_at) / RFU CAPN14 (11732068_a_at) / Fold change /veh CAPN14 (11732068_a_at) / RFU TMCC2 (11721928_a_at) / Fold change /veh TMCC2 (11721928_a_at) / RFU IRGQ (11745062_a_at) / Fold change /veh IRGQ (11745062_a_at) / RFU FAM174B (11720279_a_at) / Fold change /veh FAM174B (11720279_a_at) / RFU TMPRSS4 (11748680_a_at) / Fold change /veh TMPRSS4 (11748680_a_at) / RFU FAM212B (11763350_a_at) / Fold change /veh FAM212B (11763350_a_at) / RFU PLEKHG5 (11743358_a_at) / Fold change /veh PLEKHG5 (11743358_a_at) / RFU ZSCAN30 (11745921_a_at) / Fold change /veh ZSCAN30 (11745921_a_at) / RFU CMKLR1 (11741424_a_at) / Fold change /veh CMKLR1 (11741424_a_at) / RFU LOC101060620 /// MAPK8IP1 (11723275_at) / Fold change /veh LOC101060620 /// MAPK8IP1 (11723275_at) / RFU SPTSSB (11747773_x_at) / Fold change /veh SPTSSB (11747773_x_at) / RFU PRSS12 (11739890_at) / Fold change /veh PRSS12 (11739890_at) / RFU BIN1 (11741810_x_at) / Fold change /veh BIN1 (11741810_x_at) / RFU WNT11 (11732464_a_at) / Fold change /veh WNT11 (11732464_a_at) / RFU C10orf10 (11716521_a_at) / Fold change /veh C10orf10 (11716521_a_at) / RFU C5orf56 (11738089_at) / Fold change /veh C5orf56 (11738089_at) / RFU CYB561 (11721691_x_at) / Fold change /veh CYB561 (11721691_x_at) / RFU ANKRD19P (11752326_a_at) / Fold change /veh ANKRD19P (11752326_a_at) / RFU OR2T12 /// OR2T33 /// OR2T8 (11738714_s_at) / Fold change /veh OR2T12 /// OR2T33 /// OR2T8 (11738714_s_at) / RFU VCAN (11748164_a_at) / Fold change /veh VCAN (11748164_a_at) / RFU JSRP1 (11732532_at) / Fold change /veh JSRP1 (11732532_at) / RFU KRTAP10-11 (11738290_x_at) / Fold change /veh KRTAP10-11 (11738290_x_at) / RFU MYO3A (11730013_a_at) / Fold change /veh MYO3A (11730013_a_at) / RFU EBF3 (11725865_a_at) / Fold change /veh EBF3 (11725865_a_at) / RFU CAMK2N1 (11719241_x_at) / Fold change /veh CAMK2N1 (11719241_x_at) / RFU C5orf56 (11738088_a_at) / Fold change /veh C5orf56 (11738088_a_at) / RFU OLFML3 (11715873_a_at) / Fold change /veh OLFML3 (11715873_a_at) / RFU LOC100653217 /// NTM (11731650_a_at) / Fold change /veh LOC100653217 /// NTM (11731650_a_at) / RFU MAPK11 (11762145_a_at) / Fold change /veh MAPK11 (11762145_a_at) / RFU FIZ1 (11724087_x_at) / Fold change /veh FIZ1 (11724087_x_at) / RFU OASL (11726364_x_at) / Fold change /veh OASL (11726364_x_at) / RFU SOX15 (11748057_x_at) / Fold change /veh SOX15 (11748057_x_at) / RFU CD79A (11719716_a_at) / Fold change /veh CD79A (11719716_a_at) / RFU HIST1H1D (11736915_at) / Fold change /veh HIST1H1D (11736915_at) / RFU CASKIN2 (11723855_a_at) / Fold change /veh CASKIN2 (11723855_a_at) / RFU LOC730098 (11760151_x_at) / Fold change /veh LOC730098 (11760151_x_at) / RFU OR4N2 (11742367_at) / Fold change /veh OR4N2 (11742367_at) / RFU PRRT2 (11749266_a_at) / Fold change /veh PRRT2 (11749266_a_at) / RFU SNX32 (11753110_a_at) / Fold change /veh SNX32 (11753110_a_at) / RFU CDHR5 (11726645_a_at) / Fold change /veh CDHR5 (11726645_a_at) / RFU RCAN1 (11760418_a_at) / Fold change /veh RCAN1 (11760418_a_at) / RFU FAM167A (11723789_a_at) / Fold change /veh FAM167A (11723789_a_at) / RFU FAM26E (11764081_at) / Fold change /veh FAM26E (11764081_at) / RFU ISYNA1 (11749810_s_at) / Fold change /veh ISYNA1 (11749810_s_at) / RFU ACY1 (11761880_at) / Fold change /veh ACY1 (11761880_at) / RFU 11764098_at / Fold change /veh 11764098_at / RFU SAMD14 (11745864_x_at) / Fold change /veh SAMD14 (11745864_x_at) / RFU NPB (11741838_a_at) / Fold change /veh NPB (11741838_a_at) / RFU TMPRSS6 (11731388_a_at) / Fold change /veh TMPRSS6 (11731388_a_at) / RFU KRTAP10-2 (11738614_at) / Fold change /veh KRTAP10-2 (11738614_at) / RFU ARHGAP8 /// PRR5-ARHGAP8 (11727945_x_at) / Fold change /veh ARHGAP8 /// PRR5-ARHGAP8 (11727945_x_at) / RFU KRTAP5-7 /// NADSYN1 (11734609_at) / Fold change /veh KRTAP5-7 /// NADSYN1 (11734609_at) / RFU RASL12 (11751679_a_at) / Fold change /veh RASL12 (11751679_a_at) / RFU CDKN2B (11736163_a_at) / Fold change /veh CDKN2B (11736163_a_at) / RFU PRF1 (11729649_at) / Fold change /veh PRF1 (11729649_at) / RFU, ZNF638 /// ZNF638-IT1 / Fold change vs veh, ZNF638 /// ZNF638-IT1 / RFU, PANK3 / Fold change vs veh, PANK3 / RFU, SH3YL1 / Fold change vs veh, SH3YL1 / RFU, ZEB2 / Fold change vs veh, ZEB2 / RFU, NRIP1 / Fold change vs veh, NRIP1 / RFU, PTTG1IP / Fold change vs veh, PTTG1IP / RFU, CAPN2 / Fold change vs veh, CAPN2 / RFU, MED14 / Fold change vs veh, MED14 / RFU, SNORA58 / Fold change vs veh, SNORA58 / RFU, C1orf63 / Fold change vs veh, C1orf63 / RFU, LRRFIP1 / Fold change vs veh, LRRFIP1 / RFU, NDUFAF7 / Fold change vs veh, NDUFAF7 / RFU, SLC12A2 / Fold change vs veh, SLC12A2 / RFU, IBTK / Fold change vs veh, IBTK / RFU, ESF1 / Fold change vs veh, ESF1 / Fold change vs veh, TMEM50B / RFU, TAOK1 / Fold change vs veh, TAOK1 / RFU, ACBD3 / Fold change vs veh, ACBD3 / RFU, TMA16 / Fold change vs veh, TMA16 / RFU, RWDD3 / Fold change vs veh, RWDD3 / RFU, BCAT1 / Fold change vs veh, BCAT1 / RFU, EDEM3 / Fold change vs veh, EDEM3 / RFU, TMEM33 / Fold change vs veh, TMEM33 / RFU, WDR75 / Fold change vs veh, WDR75 / RFU, AHCTF1 / Fold change vs veh, AHCTF1 / RFU, TFRC / Fold change vs veh, TFRC / RFU, ZDHHC17 / Fold change vs veh, ZDHHC17 / RFU, NOM1 / Fold change vs veh, NOM1 / RFU, ARL8B / Fold change vs veh, ARL8B / RFU, ZBTB11 / Fold change vs veh, ZBTB11 / RFU, TAMM41 / Fold change vs veh, TAMM41 / RFU, KIAA1704 /// LOC100996395 / Fold change vs veh, KIAA1704 /// LOC100996395 / RFU, ING1 / Fold change vs veh, ING1 / RFU, TRMT61B / Fold change vs veh, TRMT61B / RFU, FUBP3 / Fold change vs veh, FUBP3 / RFU, TP53 / Fold change vs veh, TP53 / RFU, TNKS2 / Fold change vs veh, TNKS2 / RFU, ZFP14 / Fold change vs veh, ZFP14 / RFU, ACTR2 / Fold change vs veh, ACTR2 / RFU, PPP3R1 / Fold change vs veh, PPP3R1 / RFU, PIK3R1 / Fold change vs veh, PIK3R1 / RFU, HNRNPA1 / Fold change vs veh, HNRNPA1 / RFU, RNF170 / Fold change vs veh, RNF170 / RFU, ZNF28 / Fold change vs veh, ZNF28 / RFU, RNGTT / Fold change vs veh, RNGTT / RFU, OGT / Fold change vs veh, OGT / RFU, BRD1 / Fold change vs veh, BRD1 / RFU, MARS / Fold change vs veh, MARS / RFU, ZNF655 / Fold change vs veh, ZNF655 / RFU, FAHD1 / Fold change vs veh, FAHD1 / RFU, BDP1 / Fold change vs veh, BDP1 / RFU, LRRCC1 / Fold change vs veh, LRRCC1 / RFU, ARID1A / Fold change vs veh, ARID1A / RFU, ZNF146 / Fold change vs veh, ZNF146 / RFU, ZNF330 / Fold change vs veh, ZNF330 / RFU, GPN3 / Fold change vs veh, GPN3 / RFU, C9orf123 / Fold change vs veh, C9orf123 / RFU, N4BP2L2 / Fold change vs veh, N4BP2L2 / RFU, ARFIP1 / Fold change vs veh, ARFIP1 / RFU, FAM179B / Fold change vs veh, FAM179B / RFU, BCL10 / Fold change vs veh, BCL10 / RFU, UHRF1BP1L / Fold change vs veh, UHRF1BP1L / RFU, BET1 / Fold change vs veh, BET1 / RFU, CNOT2 / Fold change vs veh, CNOT2 / RFU, ZNF268 / Fold change vs veh, ZNF268 / Fold change vs veh, ZNF507 / RFU, DGCR2 / Fold change vs veh, DGCR2 / RFU, WDSUB1 / Fold change vs veh, WDSUB1 / Fold change vs veh, HSP90B1 /// MIR3652 / RFU, ADSS / Fold change vs veh, ADSS / RFU, GK / Fold change vs veh, GK / RFU, ZNF148 / Fold change vs veh, ZNF148 / RFU, TAF9 / Fold change vs veh, TAF9 / RFU, SLC1A5 / Fold change vs veh, SLC1A5 / RFU, SLMO2 / Fold change vs veh, SLMO2 / RFU, ABCC4 / Fold change vs veh, ABCC4 / RFU, LOC101060439 /// RAP1B / Fold change vs veh, LOC101060439 /// RAP1B / RFU, RFX7 / Fold change vs veh, RFX7 / RFU, GTPBP10 / Fold change vs veh, GTPBP10 / RFU, CNEP1R1 / Fold change vs veh, CNEP1R1 / RFU, BIVM-ERCC5 /// ERCC5 / Fold change vs veh, BIVM-ERCC5 /// ERCC5 / RFU, ILF3 / Fold change vs veh, ILF3 / RFU 11762660_at / Fold change /veh 11762660_at / RFU VCAN (11757783_s_at) / Fold change /veh VCAN (11757783_s_at) / RFU DDX43 (11728927_at) / Fold change /veh DDX43 (11728927_at) / RFU KRT8 (11758188_x_at) / Fold change /veh KRT8 (11758188_x_at) / RFU NKD1 (11759106_at) / Fold change /veh NKD1 (11759106_at) / RFU SRD5A1 (11742802_a_at) / Fold change /veh SRD5A1 (11742802_a_at) / RFU TPSAB1 /// TPSB2 (11721975_s_at) / Fold change /veh TPSAB1 /// TPSB2 (11721975_s_at) / RFU GSTM3 (11746129_a_at) / Fold change /veh GSTM3 (11746129_a_at) / RFU IL23R (11737362_x_at) / Fold change /veh IL23R (11737362_x_at) / RFU TMEM51 (11727254_a_at) / Fold change /veh TMEM51 (11727254_a_at) / RFU PIWIL2 (11732686_x_at) / Fold change /veh PIWIL2 (11732686_x_at) / RFU ORM1 (11744905_x_at) / Fold change /veh ORM1 (11744905_x_at) / RFU CCDC152 (11743942_at) / Fold change /veh CCDC152 (11743942_at) / RFU ECM1 (11717891_a_at) / Fold change /veh ECM1 (11717891_a_at) / RFU IL23R (11748794_a_at) / Fold change /veh IL23R (11748794_a_at) / RFU TNFAIP8L3 (11732012_x_at) / Fold change /veh TNFAIP8L3 (11732012_x_at) / RFU MBOAT4 (11741988_at) / Fold change /veh MBOAT4 (11741988_at) / RFU 11764193_at / Fold change /veh 11764193_at / RFU TMEM53 (11763286_at) / Fold change /veh TMEM53 (11763286_at) / RFU MAGEB2 (11727129_at) / Fold change /veh MAGEB2 (11727129_at) / RFU TMEM200A (11744735_a_at) / Fold change /veh TMEM200A (11744735_a_at) / RFU CCDC152 (11751479_a_at) / Fold change /veh CCDC152 (11751479_a_at) / RFU FAM211A (11726209_a_at) / Fold change /veh FAM211A (11726209_a_at) / RFU RGS16 (11746705_a_at) / Fold change /veh RGS16 (11746705_a_at) / RFU VCAN (11755009_s_at) / Fold change /veh VCAN (11755009_s_at) / RFU RHOB (11743442_s_at) / Fold change /veh RHOB (11743442_s_at) / RFU RGS16 (11720943_a_at) / Fold change /veh RGS16 (11720943_a_at) / RFU RGS16 (11720944_at) / Fold change /veh RGS16 (11720944_at) / RFU, VPS4B / Fold change vs veh, VPS4B / RFU, CREB1 / Fold change vs veh, CREB1 / RFU, DNAJC13 / Fold change vs veh, DNAJC13 / RFU, GNAQ / Fold change vs veh, GNAQ / RFU, CDK5R1 / Fold change vs veh, CDK5R1 / RFU, ZRANB3 / Fold change vs veh, ZRANB3 / RFU, CUL4A / Fold change vs veh, CUL4A / RFU, CCNY / Fold change vs veh, CCNY / RFU, UFL1 / Fold change vs veh, UFL1 / RFU, COG3 / Fold change vs veh, COG3 / RFU, DIAPH2 / Fold change vs veh, DIAPH2 / RFU, SKA2 / Fold change vs veh, SKA2 / RFU, AFF3 / Fold change vs veh, AFF3 / RFU, LMF1 / Fold change vs veh, LMF1 / RFU, IPO11 / Fold change vs veh, IPO11 / RFU, DFFB / Fold change vs veh, DFFB / RFU, FOXP1 / Fold change vs veh, FOXP1 / RFU, CARD8 / Fold change vs veh, CARD8 / RFU, STRN3 / Fold change vs veh, STRN3 / RFU, ADK / Fold change vs veh, ADK / RFU, RASSF2 / Fold change vs veh, RASSF2 / RFU, WIPF1 / Fold change vs veh, WIPF1 / RFU, LARP1B / Fold change vs veh, LARP1B / RFU, RASA1 / Fold change vs veh, RASA1 / RFU, RB1 / Fold change vs veh, RB1 / RFU, PPFIA1 / Fold change vs veh, PPFIA1 / RFU, MAT2A / Fold change vs veh, MAT2A / RFU, CCT5 / Fold change vs veh, CCT5 / RFU, WDR92 / Fold change vs veh, WDR92 / RFU, CUX1 / Fold change vs veh, CUX1 / RFU, TTC7A / Fold change vs veh, TTC7A / RFU, TMEM135 / Fold change vs veh, TMEM135 / RFU, DEPTOR / Fold change vs veh, DEPTOR / RFU, CPM / Fold change vs veh, CPM / RFU, DNAJB6 / Fold change vs veh, DNAJB6 / RFU, CACNA2D3 / Fold change vs veh, CACNA2D3 / RFU, DTX4 / Fold change vs veh, DTX4 / RFU, TFCP2 / Fold change vs veh, TFCP2 / RFU, GMCL1 /// GMCL1P1 / Fold change vs veh, GMCL1 /// GMCL1P1 / RFU, AEBP2 / Fold change vs veh, AEBP2 / RFU, SNHG1 /// SNORD22 /// SNORD25 /// SNORD26 /// SNORD27 /// SNORD28 /// SNORD29 /// SNORD31 / Fold change vs veh, SNHG1 /// SNORD22 /// SNORD25 /// SNORD26 /// SNORD27 /// SNORD28 /// SNORD29 /// SNORD31 / Fold change (Aza/veh), C12orf56 (ProbeSet 11735607_a_at) / Fold change (ACY-1035/veh), C12orf56 (ProbeSet 11735607_a_at) / Fold change (Aza/veh), FGFR1OP (ProbeSet 11751329_s_at) / Fold change (ACY-1035/veh), FGFR1OP (ProbeSet 11751329_s_at) / Fold change (Aza/veh), VPS36 (ProbeSet 11739960_a_at) / Fold change (ACY-1035/veh), VPS36 (ProbeSet 11739960_a_at) / RFU SYPL1 (11715823_x_at) / Fold change /veh SYPL1 (11715823_x_at) / RFU IGFBP7 (11715501_s_at) / Fold change /veh IGFBP7 (11715501_s_at) / RFU REEP3 (11722064_at) / Fold change /veh REEP3 (11722064_at) / RFU IGLL1 (11728026_x_at) / Fold change /veh IGLL1 (11728026_x_at): dose or concentration left out as unconfirmed
# Settings: MV-4-11 cells, 48 hours
smiles,measurement,value
Nc1ncn([C@@H]2O[C@H](CO)[C@@H](O)[C@H]2O)c(=O)n1 [azacitidine],Fold change /veh TMEM136 (11760407_x_at),1.19
